Measurements as given in ChEMBL document CHEMBL5346892, “Design and synthesis of benzochromene derivatives as AcrB inhibitors for the reversal of bacterial multidrug resistance” (Eur J Med Chem, 2023).
Calls of active or inactive are those of the source. The calls are words filed in the database; no cut-off is given here. Peptide text beside a SMILES is read from it.

Key:
[1] = test system: Escherichia coli; test: Synergistic antibacterial activity against wild type Escherichia coli BW25113 assessed as minocycline MIC at 64 microg/ml incubated for 18 hrs by broth dilution assay; assay type: functional; details: dose 64 µg/ml
[2] = test system: Escherichia coli; test: Synergistic antibacterial activity against wild type Escherichia coli BW25113 assessed as erythromycin MIC at 8 microg/ml incubated for 18 hrs by broth dilution assay; assay type: functional; details: dose 8 µg/ml
[3] = Toxicity in Caenorhabditis elegans assessed as survival rate at 128 microg/ml measured after 72 hrs by light microscopic analysis; details: at 128 µg/mL
[4] = test system: Escherichia coli; test: Synergistic antibacterial activity against wild type Escherichia coli BW25113 assessed as minocycline MIC at 16 microg/ml incubated for 18 hrs by broth dilution assay; assay type: functional; details: dose 16 µg/ml
[5] = test system: Escherichia coli; test: Synergistic antibacterial activity against wild type Escherichia coli BW25113 assessed as minocycline MIC at 32 microg/ml incubated for 18 hrs in presence of colistin by broth dilution assay; assay type: functional; details: dose 32 µg/ml
[6] = test system: Escherichia coli; test: Synergistic antibacterial activity against wild type Escherichia coli BW25113 assessed as minocycline MIC at 8 microg/ml incubated for 18 hrs in presence of colistin by broth dilution assay; assay type: functional; details: dose 8 µg/ml
[7] = test system: Escherichia coli; test: Synergistic antibacterial activity against wild type Escherichia coli BW25113 assessed as levofloxacin MIC at 64 microg/ml incubated for 18 hrs in presence of colistin by broth dilution assay; assay type: functional; details: dose 64 µg/ml
[8] = test system: Cell membrane; test: Induction of inner membrane permeabilization in Escherichia coli BW25113 assessed as increase in fluorescence intensity at 64 microg/ml incubated for 10 mins by DiOC2 dye based fluorimeter analysis; assay type: subcellular; details: dose 64.0 µg/ml
[9] = Hemolytic activity in mouse RBC assessed as hemolysis at 4 to 256 microg/ml incubated for 1 hr by microplate reader analysis; assay type: toxicity, cell-based, Erythrocyte; details: mouse red blood cells (erythrocytes), at 4 to 256 µg/mL, dose 4-256 µg/ml, read-out: Activity
[10] = test system: Escherichia coli; test: Synergistic antibacterial activity against wild type Escherichia coli BW25113 assessed as erythromycin MIC at 128 microg/ml incubated for 18 hrs by broth dilution assay; assay type: functional; details: dose 128 µg/ml
[11] = test system: Escherichia coli; test: Synergistic antibacterial activity against wild type Escherichia coli BW25113 assessed as erythromycin MIC at 128 microg/ml incubated for 18 hrs in presence of colistin by broth dilution assay; assay type: functional; details: dose 128 µg/ml
[12] = test system: Escherichia coli; test: Synergistic antibacterial activity against wild type Escherichia coli BW25113 assessed as erythromycin MIC at 64 microg/ml incubated for 18 hrs in presence of colistin by broth dilution assay; assay type: functional; details: dose 64 µg/ml
[13] = test system: Escherichia coli; test: Synergistic antibacterial activity against wild type Escherichia coli BW25113 assessed as levofloxacin MIC at 64 microg/ml incubated for 18 hrs by broth dilution assay; assay type: functional; details: dose 64 µg/ml
[14] = test system: Escherichia coli; test: Synergistic antibacterial activity against wild type Escherichia coli BW25113 assessed as levofloxacin MIC at 32 microg/ml incubated for 18 hrs by broth dilution assay; assay type: functional; details: dose 32 µg/ml
[15] = test system: Escherichia coli; test: Synergistic antibacterial activity against wild type Escherichia coli BW25113 assessed as levofloxacin MIC at 128 microg/ml incubated for 18 hrs by broth dilution assay; assay type: functional; details: dose 128 µg/ml
[16] = test system: Escherichia coli; test: Synergistic antibacterial activity against wild type Escherichia coli BW25113 assessed as erythromycin MIC at 16 microg/ml incubated for 18 hrs in presence of colistin by broth dilution assay; assay type: functional; details: dose 16 µg/ml
[17] = test system: Escherichia coli; test: Synergistic antibacterial activity against wild type Escherichia coli BW25113 assessed as erythromycin MIC at 64 microg/ml incubated for 18 hrs by broth dilution assay; assay type: functional; details: dose 64 µg/ml
[18] = test system: Escherichia coli; test: Synergistic antibacterial activity against wild type Escherichia coli BW25113 assessed as levofloxacin MIC at 16 microg/ml incubated for 18 hrs in presence of colistin by broth dilution assay; assay type: functional; details: dose 16 µg/ml
[19] = test system: Escherichia coli; test: Synergistic antibacterial activity against wild type Escherichia coli BW25113 assessed as levofloxacin MIC at 32 microg/ml incubated for 18 hrs in presence of colistin by broth dilution assay; assay type: functional; details: dose 32 µg/ml
[20] = test system: Escherichia coli; test: Synergistic antibacterial activity against wild type Escherichia coli BW25113 assessed as levofloxacin MIC at 8 microg/ml incubated for 18 hrs by broth dilution assay; assay type: functional; details: dose 8 µg/ml
[21] = test system: Escherichia coli; test: Synergistic antibacterial activity against wild type Escherichia coli BW25113 assessed as erythromycin MIC at 32 microg/ml incubated for 18 hrs in presence of colistin by broth dilution assay; assay type: functional; details: dose 32 µg/ml
[22] = test system: Escherichia coli; test: Synergistic antibacterial activity against wild type Escherichia coli BW25113 assessed as erythromycin MIC at 16 microg/ml incubated for 18 hrs by broth dilution assay; assay type: functional; details: dose 16 µg/ml
[23] = test system: Escherichia coli; test: Synergistic antibacterial activity against wild type Escherichia coli BW25113 assessed as levofloxacin MIC at 8 microg/ml incubated for 18 hrs in presence of colistin by broth dilution assay; assay type: functional; details: dose 8 µg/ml
[24] = test system: Escherichia coli; test: Synergistic antibacterial activity against wild type Escherichia coli BW25113 assessed as erythromycin MIC at 8 microg/ml incubated for 18 hrs in presence of colistin by broth dilution assay; assay type: functional; details: dose 8 µg/ml
[25] = test system: Escherichia coli; test: Synergistic antibacterial activity against wild type Escherichia coli BW25113 assessed as minocycline MIC at 8 microg/ml incubated for 18 hrs by broth dilution assay; assay type: functional; details: dose 8 µg/ml
[26] = test system: Escherichia coli; test: Synergistic antibacterial activity against wild type Escherichia coli BW25113 assessed as minocycline MIC at 16 microg/ml incubated for 18 hrs in presence of colistin by broth dilution assay; assay type: functional; details: dose 16 µg/ml
[27] = test system: Escherichia coli; test: Synergistic antibacterial activity against wild type Escherichia coli BW25113 assessed as erythromycin MIC at 32 microg/ml incubated for 18 hrs by broth dilution assay; assay type: functional; details: dose 32 µg/ml
[28] = test system: Escherichia coli; test: Synergistic antibacterial activity against wild type Escherichia coli BW25113 assessed as levofloxacin MIC at 16 microg/ml incubated for 18 hrs by broth dilution assay; assay type: functional; details: dose 16 µg/ml
[29] = test system: Escherichia coli; test: Synergistic antibacterial activity against wild type Escherichia coli BW25113 assessed as minocycline MIC at 32 microg/ml incubated for 18 hrs by broth dilution assay; assay type: functional; details: dose 32 µg/ml
[30] = test system: Escherichia coli; test: Synergistic antibacterial activity against wild type Escherichia coli BW25113 assessed as minocycline MIC at 128 microg/ml incubated for 18 hrs in presence of colistin by broth dilution assay; assay type: functional; details: dose 128 µg/ml
[31] = test system: Escherichia coli; test: Synergistic antibacterial activity against wild type Escherichia coli BW25113 assessed as minocycline MIC at 64 microg/ml incubated for 18 hrs in presence of colistin by broth dilution assay; assay type: functional; details: dose 64 µg/ml
[32] = test system: Escherichia coli; test: Synergistic antibacterial activity against wild type Escherichia coli BW25113 assessed as levofloxacin MIC at 128 microg/ml incubated for 18 hrs in presence of colistin by broth dilution assay; assay type: functional; details: dose 128 µg/ml
[33] = test system: Escherichia coli; test: Synergistic antibacterial activity against wild type Escherichia coli BW25113 assessed as minocycline MIC at 128 microg/ml incubated for 18 hrs by broth dilution assay; assay type: functional; details: dose 128 µg/ml
[34] = test system: Escherichia coli; test: Synergistic antibacterial activity against wild type Escherichia coli BW25113 assessed as fold decrease in erythromycin MIC at 128 microg/ml incubated for 18 hrs by checkboard based microplate reader analysis; assay type: functional; details: dose 128 µg/ml
[35] = target: T1, Multidrug efflux pump subunit AcrB (Escherichia coli (strain K12)) (UniProt P31224); test: Inhibition of Escherichia coli BW25113 AcrB assessed as inhibition of nile red efflux at 50 uM incubated for 15 mins
T1 sequence (whole entry): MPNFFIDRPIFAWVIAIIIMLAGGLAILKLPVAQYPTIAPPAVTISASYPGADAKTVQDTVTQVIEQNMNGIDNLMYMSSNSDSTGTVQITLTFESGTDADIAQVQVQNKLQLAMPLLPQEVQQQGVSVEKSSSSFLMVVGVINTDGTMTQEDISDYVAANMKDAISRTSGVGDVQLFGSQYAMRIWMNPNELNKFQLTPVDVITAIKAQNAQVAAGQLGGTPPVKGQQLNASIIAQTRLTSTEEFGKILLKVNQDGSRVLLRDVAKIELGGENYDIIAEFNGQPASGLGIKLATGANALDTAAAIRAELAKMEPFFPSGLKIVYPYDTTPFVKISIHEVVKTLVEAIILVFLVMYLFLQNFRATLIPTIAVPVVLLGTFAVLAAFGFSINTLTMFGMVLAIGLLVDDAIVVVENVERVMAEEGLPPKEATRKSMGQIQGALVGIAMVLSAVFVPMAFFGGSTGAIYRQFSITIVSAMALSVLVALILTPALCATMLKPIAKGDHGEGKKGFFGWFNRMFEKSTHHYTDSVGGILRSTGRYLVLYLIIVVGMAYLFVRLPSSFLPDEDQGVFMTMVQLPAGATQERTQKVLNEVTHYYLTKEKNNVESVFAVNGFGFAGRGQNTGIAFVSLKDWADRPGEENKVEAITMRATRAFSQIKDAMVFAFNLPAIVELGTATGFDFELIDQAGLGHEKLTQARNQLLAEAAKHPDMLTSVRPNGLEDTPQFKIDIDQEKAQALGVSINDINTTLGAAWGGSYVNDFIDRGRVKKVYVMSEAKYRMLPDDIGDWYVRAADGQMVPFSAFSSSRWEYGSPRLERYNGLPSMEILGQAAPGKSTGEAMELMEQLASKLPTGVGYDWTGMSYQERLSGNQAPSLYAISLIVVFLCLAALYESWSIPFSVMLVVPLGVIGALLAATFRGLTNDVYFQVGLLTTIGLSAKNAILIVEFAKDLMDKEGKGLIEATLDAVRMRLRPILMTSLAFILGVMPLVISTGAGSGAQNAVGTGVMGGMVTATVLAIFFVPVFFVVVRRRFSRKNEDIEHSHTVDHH

[36] = test system: Escherichia coli; test: Synergistic antibacterial activity against wild type Escherichia coli BW25113 assessed as minocycline MIC at 4 microg/ml incubated for 18 hrs in presence of colistin by broth dilution assay; assay type: functional; details: dose 4 µg/ml
[37] = test system: Escherichia coli; test: Synergistic antibacterial activity against wild type Escherichia coli BW25113 assessed as fold decrease in levofloxacin MIC at 8 microg/ml incubated for 18 hrs by checkboard based microplate reader analysis; assay type: functional; details: dose 8 µg/ml

Row | SMILES | MIC [1] | MIC [2] | survival at 72 h, 128 microg/ml [3] | MIC [4] | MIC [5] | MIC [6] | MIC [7] | Activity [8] | hemolysis at 1 h [9] | MIC [10] | MIC [13] | MIC [14] | MIC [15] | MIC [17] | MIC [20] | MIC [22] | MIC [27] | MIC [28] | MIC [29] | MIC [33] | further results
1 | CC1(C)CCc2c(C(=O)N3CCOCC3)cc3c(OCCOc4ccc([N+](=O)[O-])cc4)cccc3c2O1 | 2 µg/mL | 64 µg/mL | 90% | 2 µg/mL | 1 µg/mL | 1 µg/mL | 0.032 µg/mL | inactive | < 5% | 16 µg/mL | 0.032 µg/mL | 0.032 µg/mL | 0.032 µg/mL | 32 µg/mL | 0.032 µg/mL | 64 µg/mL | 64 µg/mL | 0.032 µg/mL | 2 µg/mL | 2 µg/mL | MIC [11]: 4 µg/mL; MIC [12]: 8 µg/mL; MIC [16]: 8 µg/mL; MIC [18]: 0.032 µg/mL; MIC [19]: 0.032 µg/mL; MIC [21]: 8 µg/mL; MIC [23]: 0.032 µg/mL; MIC [24]: 8 µg/mL; MIC [25]: 2 µg/mL; MIC [26]: 1 µg/mL; MIC [30]: 0.5 µg/mL; MIC [31]: 0.5 µg/mL; MIC [32]: 0.032 µg/mL; fold change (FC) [34]: 4
2 | CC1(C)S[C@@H]2[C@H](NC(=O)[C@H](N)c3ccccc3)C(=O)N2[C@H]1C(=O)O [AMPICILLIN] | – | – | 99% | – | – | – | – | – | – | – | – | – | – | – | – | – | – | – | – | – | –
3 | CC1(C)CCc2c(C(=O)N3CCOCC3)cc3c(OCCCSc4ccc(N)cc4)cccc3c2O1 | 1 µg/mL | 64 µg/mL | 90% | 1 µg/mL | 1 µg/mL | 1 µg/mL | 0.008 µg/mL | inactive | < 5% | 64 µg/mL | 0.008 µg/mL | 0.008 µg/mL | 0.008 µg/mL | 64 µg/mL | 0.008 µg/mL | 64 µg/mL | 64 µg/mL | 0.008 µg/mL | 1 µg/mL | 1 µg/mL | inhibition [35]: Active; MIC [12]: 8 µg/mL; MIC [36]: 1 µg/mL; fold change (FC) [37]: 4; MIC [16]: 8 µg/mL; MIC [18]: 0.016 µg/mL; MIC [19]: 0.016 µg/mL; MIC [21]: 8 µg/mL; MIC [23]: 0.032 µg/mL; MIC [24]: 8 µg/mL; MIC [26]: 1 µg/mL; MIC [31]: 0.5 µg/mL
4 | N=C(N)NCCC[C@H](NC(=O)[C@@H](N)Cc1ccccc1)C(=O)Nc1ccc2ccccc2c1 [PABETAN] (HELM PEPTIDE1{F.R.[c1ccc2cc(N[*:1])ccc2c1]}$$$$V2.0) | 0.5 µg/mL | 16 µg/mL | – | 0.5 µg/mL | – | – | – | – | – | 2 µg/mL | 0.008 µg/mL | 0.008 µg/mL | 0.001 µg/mL | 4 µg/mL | 0.016 µg/mL | 8 µg/mL | 4 µg/mL | 0.008 µg/mL | 0.5 µg/mL | 0.25 µg/mL | MIC [25]: 0.5 µg/mL
